What was measured:
Cytochrome P450 2C9 = Cytochrome P450 2C9 (Homo sapiens, UniProt P11712); conditions: bti-tn-5b1-4; note: in other assays of this panel Not Active means under 50% inhibition at 10 µM
[1] = target: Kappa-type opioid receptor (Homo sapiens, UniProt P41145); assay: DRUGMATRIX: Opiate kappa (OP2, KOP) radioligand binding (ligand: [3H] Diprenorphine); format: cell membranes, HEK293, Membrane; conditions: hek293; Not Active = under 50% inhibition at 10 µM
Melanocortin receptor 5 = Melanocortin receptor 5 (Homo sapiens, UniProt P33032); format: cell membranes, Membrane; conditions: hek293; note: in other assays of this panel Not Active means under 50% inhibition at 10 µM
Cytochrome P450 1A2 = target: T1, Cytochrome P450 1A2 (Homo sapiens, UniProt P05177); conditions: bti-tn-5b1-4; note: in other assays of this panel Not Active means under 50% inhibition at 10 µM
T1 sequence (P05177 whole entry): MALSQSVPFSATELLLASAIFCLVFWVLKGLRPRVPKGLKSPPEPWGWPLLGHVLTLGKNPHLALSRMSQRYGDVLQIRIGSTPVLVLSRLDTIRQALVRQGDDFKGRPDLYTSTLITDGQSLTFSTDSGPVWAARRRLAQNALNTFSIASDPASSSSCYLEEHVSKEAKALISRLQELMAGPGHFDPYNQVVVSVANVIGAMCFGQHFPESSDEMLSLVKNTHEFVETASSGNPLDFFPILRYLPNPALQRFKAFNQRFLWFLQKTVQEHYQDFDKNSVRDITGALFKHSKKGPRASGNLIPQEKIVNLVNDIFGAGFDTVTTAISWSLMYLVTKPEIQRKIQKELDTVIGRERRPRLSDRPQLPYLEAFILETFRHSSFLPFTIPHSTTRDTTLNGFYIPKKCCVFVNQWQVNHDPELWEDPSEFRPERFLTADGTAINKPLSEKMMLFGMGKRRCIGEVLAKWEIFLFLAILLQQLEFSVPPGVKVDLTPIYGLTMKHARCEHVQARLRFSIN

D(3) dopamine receptor = D(3) dopamine receptor (Homo sapiens, UniProt P35462); assay: DRUGMATRIX: Dopamine D3 radioligand binding (ligand: [3H] Spiperone); format: cell membranes, CHO, Membrane; conditions: cho
D(1A) dopamine receptor = D(1A) dopamine receptor (Homo sapiens, UniProt P21728); assay: DRUGMATRIX: Dopamine D1 radioligand binding (ligand: [3H] SCH-23390); format: cell membranes, Membrane; conditions: cho; Not Active = under 50% inhibition at 10 µM
[2] = DRUGMATRIX: GABAA, Muscimol, Central radioligand binding (ligand: [3H] Muscimol); format: cell membranes, Rattus norvegicus, Wistar, Brain, Membrane; conditions: Not Active = under 50% inhibition at 10 µM
Glycine receptor = Glycine receptor (Rattus norvegicus, UniProt P22771+P24524+P07727+P20781); format: cell membranes, Wistar, Spinal cord, Membrane; note: in other assays of this panel Not Active means under 50% inhibition at 10 µM
[3] = DRUGMATRIX: GABAA, Flunitrazepam, Central radioligand binding (ligand: [3H] Flunitrazepam); format: cell membranes, Rattus norvegicus, Wistar, Brain, Membrane; conditions: Not Active = under 50% inhibition at 10 µM
[4] = DRUGMATRIX: Glutamate, AMPA radioligand binding (ligand: [3H] AMPA); format: cell membranes, Rattus norvegicus, Wistar, Cerebral cortex, Membrane; conditions: Not Active = under 50% inhibition at 10 µM
[5] = target: Mitogen-activated protein kinase 1 (Homo sapiens, UniProt P28482); assay: DRUGMATRIX: Protein Serine/Threonine Kinase, ERK2 enzyme inhibition (substrate: Myelin Basic Protein); design: species or system Escherichia coli; conditions: Not Active = under 50% inhibition at 10 µM
[6] = DRUGMATRIX: GABAA, Chloride Channel, TBOB radioligand binding (ligand: [3H] TBOB); format: cell membranes, Rattus norvegicus, Wistar, Cerebral cortex, Membrane; conditions: Not Active = under 50% inhibition at 10 µM

Chain of D(1A) dopamine receptor (P21728 whole entry): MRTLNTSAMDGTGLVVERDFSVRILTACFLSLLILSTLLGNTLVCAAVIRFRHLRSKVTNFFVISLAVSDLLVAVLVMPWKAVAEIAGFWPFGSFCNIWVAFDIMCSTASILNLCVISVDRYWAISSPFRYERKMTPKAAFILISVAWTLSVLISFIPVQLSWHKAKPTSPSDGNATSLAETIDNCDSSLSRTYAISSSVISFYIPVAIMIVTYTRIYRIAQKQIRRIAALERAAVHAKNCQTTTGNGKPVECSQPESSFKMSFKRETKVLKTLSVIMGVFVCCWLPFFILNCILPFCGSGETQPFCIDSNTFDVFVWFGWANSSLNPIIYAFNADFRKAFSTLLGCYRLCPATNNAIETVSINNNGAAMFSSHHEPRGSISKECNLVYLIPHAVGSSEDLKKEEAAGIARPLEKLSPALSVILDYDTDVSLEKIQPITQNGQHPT
Chain of Mitogen-activated protein kinase 1 (P28482 whole entry): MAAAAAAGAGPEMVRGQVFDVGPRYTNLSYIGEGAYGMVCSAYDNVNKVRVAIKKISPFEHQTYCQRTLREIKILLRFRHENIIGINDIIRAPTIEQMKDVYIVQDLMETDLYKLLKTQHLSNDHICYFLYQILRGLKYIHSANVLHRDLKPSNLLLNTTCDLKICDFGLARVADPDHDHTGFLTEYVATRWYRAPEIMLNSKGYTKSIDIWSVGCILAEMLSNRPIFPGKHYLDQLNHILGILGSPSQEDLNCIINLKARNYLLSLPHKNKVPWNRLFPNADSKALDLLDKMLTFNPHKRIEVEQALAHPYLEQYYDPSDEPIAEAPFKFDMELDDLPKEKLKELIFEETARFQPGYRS
Chain of Melanocortin receptor 5 (P33032 whole entry): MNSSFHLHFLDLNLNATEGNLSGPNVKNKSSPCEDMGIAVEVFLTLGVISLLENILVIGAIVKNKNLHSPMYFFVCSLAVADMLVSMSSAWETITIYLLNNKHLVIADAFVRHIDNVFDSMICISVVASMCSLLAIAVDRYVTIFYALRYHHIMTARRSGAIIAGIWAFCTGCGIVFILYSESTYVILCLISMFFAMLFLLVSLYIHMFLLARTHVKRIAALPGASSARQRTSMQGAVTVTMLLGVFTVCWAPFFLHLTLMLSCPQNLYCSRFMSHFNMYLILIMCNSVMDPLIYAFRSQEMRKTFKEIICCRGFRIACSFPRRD
Chain of Cytochrome P450 2C9 (P11712 whole entry): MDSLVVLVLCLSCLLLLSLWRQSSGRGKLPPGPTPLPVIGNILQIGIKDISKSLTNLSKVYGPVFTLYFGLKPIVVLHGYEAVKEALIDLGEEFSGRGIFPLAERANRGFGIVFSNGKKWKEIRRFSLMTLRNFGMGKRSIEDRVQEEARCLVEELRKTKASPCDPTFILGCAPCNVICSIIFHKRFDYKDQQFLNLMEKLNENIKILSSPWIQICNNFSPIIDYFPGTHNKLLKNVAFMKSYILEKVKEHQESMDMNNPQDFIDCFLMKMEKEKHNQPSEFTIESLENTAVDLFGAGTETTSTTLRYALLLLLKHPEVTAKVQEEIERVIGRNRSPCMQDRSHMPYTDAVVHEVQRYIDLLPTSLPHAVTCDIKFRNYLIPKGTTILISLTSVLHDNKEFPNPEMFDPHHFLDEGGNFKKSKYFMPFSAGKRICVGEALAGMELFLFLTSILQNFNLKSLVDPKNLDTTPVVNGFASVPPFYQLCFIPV
Chain of D(3) dopamine receptor (P35462 whole entry): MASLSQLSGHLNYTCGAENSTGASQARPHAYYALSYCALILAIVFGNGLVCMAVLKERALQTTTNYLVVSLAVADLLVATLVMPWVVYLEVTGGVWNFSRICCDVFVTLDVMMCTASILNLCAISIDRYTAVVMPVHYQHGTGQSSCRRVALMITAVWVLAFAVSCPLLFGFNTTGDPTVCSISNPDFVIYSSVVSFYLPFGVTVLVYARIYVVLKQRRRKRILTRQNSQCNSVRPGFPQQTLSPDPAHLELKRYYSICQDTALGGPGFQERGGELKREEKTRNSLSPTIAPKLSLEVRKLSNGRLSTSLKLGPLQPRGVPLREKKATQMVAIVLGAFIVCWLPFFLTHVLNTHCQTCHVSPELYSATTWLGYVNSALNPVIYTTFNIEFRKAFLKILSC
Chain of Kappa-type opioid receptor (P41145 whole entry): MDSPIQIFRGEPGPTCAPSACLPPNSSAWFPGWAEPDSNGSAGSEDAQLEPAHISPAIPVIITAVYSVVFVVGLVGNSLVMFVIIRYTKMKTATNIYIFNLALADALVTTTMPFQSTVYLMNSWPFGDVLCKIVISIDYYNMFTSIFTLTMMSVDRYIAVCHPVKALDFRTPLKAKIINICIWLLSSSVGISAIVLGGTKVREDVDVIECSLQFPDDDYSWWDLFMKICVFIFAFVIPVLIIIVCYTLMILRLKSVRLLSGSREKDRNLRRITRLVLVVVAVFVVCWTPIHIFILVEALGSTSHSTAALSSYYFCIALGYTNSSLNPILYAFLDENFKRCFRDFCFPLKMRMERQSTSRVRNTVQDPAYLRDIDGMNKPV

N[C@H](CSC(=S)NCc1ccccc1)C(=O)O
Not Active: IC50 (Cytochrome P450 2C9) | Ki (Cytochrome P450 2C9) | IC50 [1] | IC50 (Melanocortin receptor 5) | IC50 (Cytochrome P450 1A2) | Ki (Cytochrome P450 1A2) | IC50 (D(3) dopamine receptor) | IC50 (D(1A) dopamine receptor) | IC50 [2] | Ki [2] | IC50 (Glycine receptor) | IC50 [3] | Ki [3] | IC50 [4] | Ki [4] | IC50 [5] | IC50 [6] | Ki [6]

Cc1cc(C)nc(NS(=O)(=O)c2ccc(N)cc2)n1 [SULFAMETHAZINE]
Not Active: IC50 (Cytochrome P450 2C9) | Ki (Cytochrome P450 2C9) | IC50 [1] | IC50 (Melanocortin receptor 5) | IC50 (Cytochrome P450 1A2) | Ki (Cytochrome P450 1A2) | IC50 (D(3) dopamine receptor) | IC50 (D(1A) dopamine receptor) | IC50 [2] | Ki [2] | IC50 (Glycine receptor) | IC50 [3] | Ki [3] | IC50 [4] | Ki [4] | IC50 [5] | IC50 [6] | Ki [6]

Cc1cccc(Nc2ccncc2S(=O)(=O)NC(=O)NC(C)C)c1 [TORSEMIDE]
Not Active: IC50 (Cytochrome P450 2C9) | Ki (Cytochrome P450 2C9) | IC50 [1] | IC50 (Melanocortin receptor 5) | IC50 (Cytochrome P450 1A2) | Ki (Cytochrome P450 1A2) | IC50 (D(3) dopamine receptor) | IC50 (D(1A) dopamine receptor) | IC50 [2] | Ki [2] | IC50 (Glycine receptor) | IC50 [3] | Ki [3] | IC50 [4] | Ki [4] | IC50 [5] | IC50 [6] | Ki [6]

O=C1CCC(N2C(=O)c3ccccc3C2=O)C(=O)N1 (stereo not drawn) [THALIDOMIDE]
Not Active: IC50 (Cytochrome P450 2C9) | Ki (Cytochrome P450 2C9) | IC50 [1] | IC50 (Melanocortin receptor 5) | IC50 (Cytochrome P450 1A2) | Ki (Cytochrome P450 1A2) | IC50 (D(3) dopamine receptor) | IC50 (D(1A) dopamine receptor) | IC50 [2] | Ki [2] | IC50 (Glycine receptor) | IC50 [3] | Ki [3] | IC50 [4] | Ki [4] | IC50 [5] | IC50 [6] | Ki [6]

CC(C)CC(N(C)C)C1(c2ccc(Cl)cc2)CCC1 (stereo not drawn) [SIBUTRAMINE]
Not Active: IC50 (Cytochrome P450 2C9) | Ki (Cytochrome P450 2C9) | IC50 [1] | IC50 (Melanocortin receptor 5) | IC50 (Cytochrome P450 1A2) | Ki (Cytochrome P450 1A2) | IC50 (D(3) dopamine receptor) | IC50 (D(1A) dopamine receptor) | IC50 [2] | Ki [2] | IC50 (Glycine receptor) | IC50 [3] | Ki [3] | IC50 [4] | Ki [4] | IC50 [5] | IC50 [6] | Ki [6]

[H]/N=C(/N)N[C@H]1[C@H](O)[C@@H](O)[C@H](O[C@@H]2O[C@@H](C)[C@](O)(C=O)[C@H]2O[C@@H]2O[C@@H](CO)[C@H](O)[C@@H](O)[C@@H]2NC)[C@@H](N/C(N)=N\[H])[C@@H]1O [STREPTOMYCIN]
Not Active: IC50 (Cytochrome P450 2C9) | Ki (Cytochrome P450 2C9) | IC50 [1] | IC50 (Melanocortin receptor 5) | IC50 (Cytochrome P450 1A2) | Ki (Cytochrome P450 1A2) | IC50 (D(3) dopamine receptor) | IC50 (D(1A) dopamine receptor) | IC50 [2] | Ki [2] | IC50 (Glycine receptor) | IC50 [3] | Ki [3] | IC50 [4] | Ki [4] | IC50 [5] | IC50 [6] | Ki [6]

CC(C)C[C@H](NC(=O)[C@@H](O)[C@H](N)Cc1ccccc1)C(=O)O [UBENIMEX]
Not Active: IC50 (Cytochrome P450 2C9) | Ki (Cytochrome P450 2C9) | IC50 [1] | IC50 (Melanocortin receptor 5) | IC50 (Cytochrome P450 1A2) | Ki (Cytochrome P450 1A2) | IC50 (D(3) dopamine receptor) | IC50 (D(1A) dopamine receptor) | IC50 [2] | Ki [2] | IC50 (Glycine receptor) | IC50 [3] | Ki [3] | IC50 [4] | Ki [4] | IC50 [5] | IC50 [6] | Ki [6]

CC(C)NCC(O)COc1cccc2ccccc12 (stereo not drawn) [PROPRANOLOL]
Not Active: IC50 (Cytochrome P450 2C9) | Ki (Cytochrome P450 2C9) | IC50 [1] | IC50 (Melanocortin receptor 5) | IC50 (D(3) dopamine receptor) | IC50 (Glycine receptor) | IC50 [5]

COCCOC(=O)C1=C(C)NC(C)=C(C(=O)OC(C)C)C1c1cccc([N+](=O)[O-])c1 (stereo not drawn) [NIMODIPINE]
Not Active: IC50 [1] | IC50 (Melanocortin receptor 5) | IC50 (D(3) dopamine receptor) | IC50 (D(1A) dopamine receptor) | IC50 [2] | Ki [2] | IC50 (Glycine receptor) | IC50 [3] | Ki [3] | IC50 [4] | Ki [4] | IC50 [5] | IC50 [6] | Ki [6]

COc1cc(NS(=O)(=O)c2ccc(N)cc2)nc(OC)n1 [SULFADIMETHOXINE]
Not Active: IC50 [1] | IC50 (Melanocortin receptor 5) | IC50 (Cytochrome P450 1A2) | Ki (Cytochrome P450 1A2) | IC50 (D(3) dopamine receptor) | IC50 (D(1A) dopamine receptor) | IC50 [2] | Ki [2] | IC50 (Glycine receptor) | IC50 [3] | Ki [3] | IC50 [4] | Ki [4] | IC50 [5] | IC50 [6] | Ki [6]

O=C(c1ccc(OCCN2CCCCC2)cc1)c1c(-c2ccc(O)cc2)sc2cc(O)ccc12 [RALOXIFENE]
Not Active: IC50 (Melanocortin receptor 5) | IC50 (Cytochrome P450 1A2) | Ki (Cytochrome P450 1A2) | IC50 [2] | Ki [2] | IC50 (Glycine receptor) | IC50 [3] | Ki [3] | IC50 [4] | Ki [4] | IC50 [5] | IC50 [6] | Ki [6]

CC/C(=C(/CC)c1ccc(O)cc1)c1ccc(O)cc1 [DIETHYLSTILBESTROL]
Not Active: IC50 (Cytochrome P450 2C9) | Ki (Cytochrome P450 2C9) | IC50 (Melanocortin receptor 5) | IC50 (Cytochrome P450 1A2) | Ki (Cytochrome P450 1A2) | IC50 (Glycine receptor) | IC50 [5]

C=CCN1CC[C@]23c4c5ccc(O)c4O[C@H]2C(=O)CC[C@@]3(O)[C@H]1C5 [NALOXONE]
Not Active: IC50 (Melanocortin receptor 5) | IC50 (D(3) dopamine receptor) | IC50 (Glycine receptor) | IC50 [5]

Clc1ccc2c(c1)C(N1CCNCC1)=Nc1ccccc1O2 [AMOXAPINE]
Not Active: IC50 (Cytochrome P450 2C9) | Ki (Cytochrome P450 2C9) | IC50 [1] | IC50 (Melanocortin receptor 5) | IC50 (Cytochrome P450 1A2) | Ki (Cytochrome P450 1A2) | IC50 (Glycine receptor) | IC50 [5]

CC(=O)CC(c1ccccc1)c1c(O)c2ccccc2oc1=O (stereo not drawn) [WARFARIN]
Not Active: IC50 (Cytochrome P450 2C9) | Ki (Cytochrome P450 2C9) | IC50 (Melanocortin receptor 5) | IC50 (Cytochrome P450 1A2) | Ki (Cytochrome P450 1A2) | IC50 (D(3) dopamine receptor) | IC50 (D(1A) dopamine receptor) | IC50 [2] | Ki [2] | IC50 (Glycine receptor) | IC50 [3] | Ki [3] | IC50 [4] | Ki [4] | IC50 [5] | IC50 [6] | Ki [6]

CC(C)(C)c1ccc(C(O)CCCN2CCC(C(O)(c3ccccc3)c3ccccc3)CC2)cc1 (stereo not drawn) [TERFENADINE]
Not Active: IC50 [1] | IC50 (Melanocortin receptor 5) | IC50 (Cytochrome P450 1A2) | Ki (Cytochrome P450 1A2) | IC50 [2] | Ki [2] | IC50 (Glycine receptor) | IC50 [3] | Ki [3] | IC50 [4] | Ki [4] | IC50 [5] | IC50 [6] | Ki [6]

CC(C)c1nc(CN(C)C(=O)N[C@H](C(=O)N[C@@H](Cc2ccccc2)C[C@H](O)[C@H](Cc2ccccc2)NC(=O)OCc2cncs2)C(C)C)cs1 [RITONAVIR]
Not Active: IC50 (Melanocortin receptor 5) | IC50 (D(3) dopamine receptor) | IC50 (D(1A) dopamine receptor) | IC50 [2] | Ki [2] | IC50 (Glycine receptor) | IC50 [3] | Ki [3] | IC50 [4] | Ki [4] | IC50 [5] | IC50 [6] | Ki [6]

CN1CCC(=C2c3ccccc3C=Cc3ccccc32)CC1 [CYPROHEPTADINE]
Not Active: IC50 (Cytochrome P450 2C9) | Ki (Cytochrome P450 2C9) | IC50 [1] | IC50 (Melanocortin receptor 5) | IC50 (Cytochrome P450 1A2) | Ki (Cytochrome P450 1A2) | IC50 (Glycine receptor) | IC50 [5]

COc1cc2c(c(OC)c1OC)-c1ccc(OC)c(=O)cc1[C@@H](NC(C)=O)CC2 [COLCHICINE]
Not Active: IC50 (Cytochrome P450 2C9) | Ki (Cytochrome P450 2C9) | IC50 (Melanocortin receptor 5) | IC50 (D(3) dopamine receptor) | IC50 (Glycine receptor) | IC50 [5]

Reference: ChEMBL document CHEMBL1909046, “DrugMatrix in vitro pharmacology data”
